Measured values reported in PMC5529566, “The cryo-EM structure of gastric H^+,K^+-ATPase with bound BYK99, a high-affinity member of K^+-competitive, imidazo[1,2-a]pyridine inhibitors” (Scientific Reports, 2017).

Columns and labels:
H^+,K^+-ATPase L139I = H^+,K^+-ATPase L139I (Sus scrofa, UniProt P19156, L140I); assay: ATPase assay, L139I mutant
[1] = biological target: H^+,K^+-ATPase A335C/C813A (Sus scrofa, UniProt P19156, A336C/C814A); assay: ATPase assay, A335C/C813A mutant
H^+,K^+-ATPase L139A = H^+,K^+-ATPase L139A (Sus scrofa, UniProt P19156, L140A); assay: ATPase assay, L139A mutant
H^+,K^+-ATPase D137A = H^+,K^+-ATPase D137A (Sus scrofa, UniProt P19156, D138A); assay: ATPase assay, D137A mutant
H^+,K^+-ATPase D137A, sequence (P19156 whole entry D138A): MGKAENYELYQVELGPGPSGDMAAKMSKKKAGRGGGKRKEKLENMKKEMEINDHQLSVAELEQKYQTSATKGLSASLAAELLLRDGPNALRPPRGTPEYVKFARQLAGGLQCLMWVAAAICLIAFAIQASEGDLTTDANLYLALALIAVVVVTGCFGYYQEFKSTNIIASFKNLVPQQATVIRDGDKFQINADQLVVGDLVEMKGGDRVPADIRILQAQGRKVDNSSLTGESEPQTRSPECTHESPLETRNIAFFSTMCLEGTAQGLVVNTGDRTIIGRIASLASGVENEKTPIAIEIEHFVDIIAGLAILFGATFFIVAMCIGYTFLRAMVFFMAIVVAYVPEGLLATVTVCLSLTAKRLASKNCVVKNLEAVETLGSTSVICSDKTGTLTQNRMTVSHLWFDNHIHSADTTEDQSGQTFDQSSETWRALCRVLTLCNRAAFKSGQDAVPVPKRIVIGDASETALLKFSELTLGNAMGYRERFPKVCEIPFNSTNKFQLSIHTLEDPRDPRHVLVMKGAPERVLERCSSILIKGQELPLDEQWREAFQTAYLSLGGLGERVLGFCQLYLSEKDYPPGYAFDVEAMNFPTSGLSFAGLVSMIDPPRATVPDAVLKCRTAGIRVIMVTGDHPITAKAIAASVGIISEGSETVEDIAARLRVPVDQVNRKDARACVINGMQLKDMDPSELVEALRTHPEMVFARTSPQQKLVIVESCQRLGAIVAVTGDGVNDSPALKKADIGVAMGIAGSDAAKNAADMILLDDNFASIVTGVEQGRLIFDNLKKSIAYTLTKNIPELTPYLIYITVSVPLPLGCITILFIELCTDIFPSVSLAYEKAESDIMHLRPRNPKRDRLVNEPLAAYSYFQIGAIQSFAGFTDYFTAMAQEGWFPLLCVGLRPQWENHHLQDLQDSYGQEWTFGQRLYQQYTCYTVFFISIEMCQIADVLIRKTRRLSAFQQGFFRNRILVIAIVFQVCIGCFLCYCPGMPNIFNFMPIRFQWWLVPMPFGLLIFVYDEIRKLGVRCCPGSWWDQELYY
H^+,K^+-ATPase D137A, sequence (P18434 whole entry partner): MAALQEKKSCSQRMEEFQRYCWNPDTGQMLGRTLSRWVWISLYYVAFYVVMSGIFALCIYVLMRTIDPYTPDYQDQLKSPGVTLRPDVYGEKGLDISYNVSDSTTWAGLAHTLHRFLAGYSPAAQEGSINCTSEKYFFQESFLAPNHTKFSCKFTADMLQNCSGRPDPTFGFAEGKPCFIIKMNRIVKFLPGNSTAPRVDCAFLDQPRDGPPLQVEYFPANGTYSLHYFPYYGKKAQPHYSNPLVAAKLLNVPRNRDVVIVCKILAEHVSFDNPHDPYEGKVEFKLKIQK

H^+,K^+-ATPase A125S = H^+,K^+-ATPase A125S (Sus scrofa, UniProt P19156, A126S); assay: ATPase assay, A125S mutant
H^+,K^+-ATPase A335G = H^+,K^+-ATPase A335G (Sus scrofa, UniProt P19156, A336G); assay: ATPase assay, A335G mutant
H^+,K^+-ATPase A335G, sequence (P19156 whole entry A336G): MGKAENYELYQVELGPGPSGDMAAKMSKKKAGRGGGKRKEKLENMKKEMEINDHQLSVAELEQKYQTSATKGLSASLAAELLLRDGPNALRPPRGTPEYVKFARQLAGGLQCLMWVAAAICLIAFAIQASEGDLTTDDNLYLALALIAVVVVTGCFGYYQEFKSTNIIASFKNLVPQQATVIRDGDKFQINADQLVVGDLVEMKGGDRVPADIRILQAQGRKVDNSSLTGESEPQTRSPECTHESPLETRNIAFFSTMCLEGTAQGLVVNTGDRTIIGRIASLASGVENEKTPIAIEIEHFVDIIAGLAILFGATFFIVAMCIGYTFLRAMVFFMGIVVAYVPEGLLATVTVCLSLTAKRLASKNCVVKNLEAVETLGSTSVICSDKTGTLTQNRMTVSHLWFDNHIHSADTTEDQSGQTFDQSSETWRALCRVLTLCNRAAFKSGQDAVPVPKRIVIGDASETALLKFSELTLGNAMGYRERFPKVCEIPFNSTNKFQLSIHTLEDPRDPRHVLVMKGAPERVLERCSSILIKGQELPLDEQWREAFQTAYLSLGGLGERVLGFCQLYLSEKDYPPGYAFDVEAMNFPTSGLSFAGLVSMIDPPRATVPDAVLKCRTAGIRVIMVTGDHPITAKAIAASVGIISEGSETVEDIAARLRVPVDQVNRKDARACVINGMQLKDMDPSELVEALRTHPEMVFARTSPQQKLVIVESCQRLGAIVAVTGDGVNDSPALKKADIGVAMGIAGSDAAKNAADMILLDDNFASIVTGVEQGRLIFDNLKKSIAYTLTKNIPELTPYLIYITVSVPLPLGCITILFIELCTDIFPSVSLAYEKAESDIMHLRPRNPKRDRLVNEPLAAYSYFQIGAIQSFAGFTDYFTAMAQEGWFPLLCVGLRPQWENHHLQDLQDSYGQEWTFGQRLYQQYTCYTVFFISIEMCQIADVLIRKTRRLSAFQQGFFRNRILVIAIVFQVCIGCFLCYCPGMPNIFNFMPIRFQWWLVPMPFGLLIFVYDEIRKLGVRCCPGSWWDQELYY
H^+,K^+-ATPase A335G, sequence (P18434 whole entry partner): as the sequence (P18434 whole entry partner) above

H^+,K^+-ATPase I126A = biological target: T1, H^+,K^+-ATPase I126A (Sus scrofa, UniProt P19156, I127A); assay: ATPase assay, I126A mutant; type: biochemical, pig
T1 construct: made in house; host or cells: HEK293S GnT1- cells (BacMam baculovirus transduction); permeabilised membrane fractions

H^+,K^+-ATPase Y140F = H^+,K^+-ATPase Y140F (Sus scrofa, UniProt P19156, Y141F); assay: ATPase assay, Y140F mutant
H^+,K^+-ATPase Y140F, sequence (P19156 whole entry Y141F): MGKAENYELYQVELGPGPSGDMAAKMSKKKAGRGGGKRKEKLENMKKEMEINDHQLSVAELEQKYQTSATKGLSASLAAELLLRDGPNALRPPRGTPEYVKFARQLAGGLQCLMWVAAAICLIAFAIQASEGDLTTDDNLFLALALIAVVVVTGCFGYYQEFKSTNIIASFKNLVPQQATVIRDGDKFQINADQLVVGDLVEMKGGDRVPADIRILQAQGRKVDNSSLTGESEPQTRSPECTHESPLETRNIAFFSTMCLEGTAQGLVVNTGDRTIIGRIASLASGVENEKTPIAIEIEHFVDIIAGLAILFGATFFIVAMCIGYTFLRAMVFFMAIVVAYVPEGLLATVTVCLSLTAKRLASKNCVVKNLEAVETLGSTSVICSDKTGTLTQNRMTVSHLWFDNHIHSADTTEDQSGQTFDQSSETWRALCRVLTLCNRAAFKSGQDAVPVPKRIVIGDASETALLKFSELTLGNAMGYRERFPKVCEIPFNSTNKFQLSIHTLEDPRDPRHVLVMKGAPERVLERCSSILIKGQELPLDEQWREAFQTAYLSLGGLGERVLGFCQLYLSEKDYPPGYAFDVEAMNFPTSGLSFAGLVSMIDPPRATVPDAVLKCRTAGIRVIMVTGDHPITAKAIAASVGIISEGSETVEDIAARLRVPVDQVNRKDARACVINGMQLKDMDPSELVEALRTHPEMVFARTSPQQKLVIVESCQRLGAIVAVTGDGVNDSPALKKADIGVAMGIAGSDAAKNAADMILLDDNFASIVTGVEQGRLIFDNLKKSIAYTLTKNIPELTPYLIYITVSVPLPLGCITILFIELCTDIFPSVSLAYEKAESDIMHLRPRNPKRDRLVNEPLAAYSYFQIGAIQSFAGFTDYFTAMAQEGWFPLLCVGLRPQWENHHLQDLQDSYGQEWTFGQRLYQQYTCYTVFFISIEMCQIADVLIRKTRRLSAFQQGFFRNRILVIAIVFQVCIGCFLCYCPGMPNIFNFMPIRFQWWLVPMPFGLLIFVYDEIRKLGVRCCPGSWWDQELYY
H^+,K^+-ATPase Y140F, sequence (P18434 whole entry partner): as the sequence (P18434 whole entry partner) above

H^+,K^+-ATPase L796F = H^+,K^+-ATPase L796F (Sus scrofa, UniProt P19156, L797F); assay: ATPase assay, L796F mutant
H^+,K^+-ATPase D137I = H^+,K^+-ATPase D137I (Sus scrofa, UniProt P19156, D138I); assay: ATPase assay, D137I mutant
H^+,K^+-ATPase D136A = H^+,K^+-ATPase D136A (Sus scrofa, UniProt P19156, D137A); assay: ATPase assay, D136A mutant
H^+,K^+-ATPase N138L = H^+,K^+-ATPase N138L (Sus scrofa, UniProt P19156, N139L); assay: ATPase assay, N138L mutant
H^+,K^+-ATPase L809F = H^+,K^+-ATPase L809F (Sus scrofa, UniProt P19156, L810F); assay: ATPase assay, L809F mutant
H^+,K^+-ATPase Q127F = H^+,K^+-ATPase Q127F (Sus scrofa, UniProt P19156, Q128F); assay: ATPase assay, Q127F mutant
H^+,K^+-ATPase I126F = biological target: T2, H^+,K^+-ATPase I126F (Sus scrofa, UniProt P19156, I127F); assay: ATPase assay, I126F mutant; type: biochemical, pig
T2 construct: made in house; host or cells: HEK293S GnT1- cells (BacMam baculovirus transduction); permeabilised membrane fractions

H^+,K^+-ATPase D137E = biological target: T3, H^+,K^+-ATPase D137E (Sus scrofa, UniProt P19156, D138E); assay: ATPase assay, D137E mutant; type: biochemical, pig
T3 construct: made in house; host or cells: HEK293S GnT1- cells (BacMam baculovirus transduction), membrane fraction

H^+,K^+-ATPase V331F = H^+,K^+-ATPase V331F (Sus scrofa, UniProt P19156, V332F); assay: ATPase assay, V331F mutant
H^+,K^+-ATPase L139F = H^+,K^+-ATPase L139F (Sus scrofa, UniProt P19156, L140F); assay: ATPase assay, L139F mutant
H^+,K^+-ATPase A339S = H^+,K^+-ATPase A339S (Sus scrofa, UniProt P19156, A340S); assay: ATPase assay, A339S mutant
H^+,K^+-ATPase A339S, sequence (P19156 whole entry A340S): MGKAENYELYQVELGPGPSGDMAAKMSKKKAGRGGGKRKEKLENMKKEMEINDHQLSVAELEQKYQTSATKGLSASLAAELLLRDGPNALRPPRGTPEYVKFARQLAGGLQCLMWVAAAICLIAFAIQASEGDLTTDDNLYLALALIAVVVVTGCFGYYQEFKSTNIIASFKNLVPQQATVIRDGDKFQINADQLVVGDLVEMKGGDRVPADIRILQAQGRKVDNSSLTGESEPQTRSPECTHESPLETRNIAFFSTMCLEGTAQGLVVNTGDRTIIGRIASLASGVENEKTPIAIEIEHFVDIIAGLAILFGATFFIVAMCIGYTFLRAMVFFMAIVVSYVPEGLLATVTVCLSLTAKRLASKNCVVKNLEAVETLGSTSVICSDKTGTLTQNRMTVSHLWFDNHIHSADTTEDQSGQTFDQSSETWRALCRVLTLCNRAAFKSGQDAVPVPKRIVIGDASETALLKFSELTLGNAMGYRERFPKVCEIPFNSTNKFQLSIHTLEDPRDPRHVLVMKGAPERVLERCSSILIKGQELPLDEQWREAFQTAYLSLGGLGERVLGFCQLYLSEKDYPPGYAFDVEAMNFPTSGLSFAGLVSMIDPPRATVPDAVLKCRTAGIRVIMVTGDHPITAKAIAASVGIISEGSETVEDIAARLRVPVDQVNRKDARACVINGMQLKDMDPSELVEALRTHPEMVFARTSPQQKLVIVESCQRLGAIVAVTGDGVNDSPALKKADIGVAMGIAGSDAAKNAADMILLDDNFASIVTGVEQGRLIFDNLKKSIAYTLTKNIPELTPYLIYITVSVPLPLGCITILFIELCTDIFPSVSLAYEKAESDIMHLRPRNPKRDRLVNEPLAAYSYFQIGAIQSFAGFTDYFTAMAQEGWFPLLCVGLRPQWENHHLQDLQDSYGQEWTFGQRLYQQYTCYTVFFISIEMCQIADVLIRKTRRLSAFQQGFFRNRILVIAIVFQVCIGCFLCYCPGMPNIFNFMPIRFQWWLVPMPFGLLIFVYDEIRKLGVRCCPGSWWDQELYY
H^+,K^+-ATPase A339S, sequence (P18434 whole entry partner): as the sequence (P18434 whole entry partner) above

H^+,K^+-ATPase N138D = H^+,K^+-ATPase N138D (Sus scrofa, UniProt P19156, N139D); assay: ATPase assay, N138D mutant
H^+,K^+-ATPase WT = biological target: T4, H^+,K^+-ATPase WT (Sus scrofa, UniProt P19156); assay: K^+-competitive inhibition of H^+,K^+-ATPase activity, 96-well ATPase assay, wild-type; type: biochemical, pig; conditions: WT
T4 construct: made in house; host or cells: HEK293S GnT1- cells (BacMam baculovirus transduction); permeabilised membrane fractions

H^+,K^+-ATPase F332I = H^+,K^+-ATPase F332I (Sus scrofa, UniProt P19156, F333I); assay: ATPase assay, F332I mutant
H^+,K^+-ATPase Y140A = H^+,K^+-ATPase Y140A (Sus scrofa, UniProt P19156, Y141A); assay: ATPase assay, Y140A mutant
H^+,K^+-ATPase = H^+,K^+-ATPase (Sus scrofa, UniProt P19156); assay: Dose-dependent inhibition of H^+,K^+-ATPase activity in the presence of 10 mM KCl
Method: Reactions were initiated by incubating at 37 °C using a thermal cycler, and maintained for 1 to 5 h (depending on the activity). Reactions were terminated by withdrawing 40 μL from the 80 μL reactant, and mixing with 80 μL of stop solution comprising 6% ascorbic acid and 2% ammonium molybdate in 1 N HCl, followed by the addition of 120 μL of 2% sodium arsenate, 2% sodium citrate, and 2% acetic acid. The amount of released inorganic phosphate was determined colorimetrically[39] from absorbance at 850 nm by the microplate reader (TECAN).

H^+,K^+-ATPase N138I = H^+,K^+-ATPase N138I (Sus scrofa, UniProt P19156, N139I); assay: ATPase assay, N138I mutant
H^+,K^+-ATPase L141I = H^+,K^+-ATPase L141I (Sus scrofa, UniProt P19156, L142I); assay: ATPase assay, L141I mutant

What does the source list for `Cc1nc2c3c(ccn2c1C)[C@@H](O)[C@H](O)[C@@H](c1ccccc1)N3` [BYK99]?
Ki (H^+,K^+-ATPase L139I): 0.0026 ± 0.0002 µM; -fold increase in K i compared with wild-type (H^+,K^+-ATPase L139I; L139I): 0.4 fold; Ki [1]: > 1 µM; -fold increase in K i compared with wild-type ([1]; A335C/C813A): > 170 fold; Ki (H^+,K^+-ATPase L139A): 0.014 ± 0.002 µM; -fold increase in K i compared with wild-type (H^+,K^+-ATPase L139A; L139A): 2.4 fold; Ki (H^+,K^+-ATPase D137A): 0.081 ± 0.013 µM; -fold increase in K i compared with wild-type (H^+,K^+-ATPase D137A; D137A): 14 fold; Ki (H^+,K^+-ATPase A125S): 0.027 ± 0.002 µM; -fold increase in K i compared with wild-type (H^+,K^+-ATPase A125S; A125S): 4.6 fold; Ki (H^+,K^+-ATPase A335G): 0.0012 ± 0.0001 µM; -fold increase in K i compared with wild-type (H^+,K^+-ATPase A335G; A335G): 0.2 fold; fold increased affinity (H^+,K^+-ATPase A335G; A335G vs WT): 5 fold; -fold increase in K i compared with wild-type (H^+,K^+-ATPase I126A; I126A): 19 fold; Ki (H^+,K^+-ATPase I126A; I126A (M1), high H^+-ATPase activity, K i determined by K m/V max plot): 0.11 ± 0.05 µM; Ki (H^+,K^+-ATPase Y140F): 0.035 ± 0.006 µM; -fold increase in K i compared with wild-type (H^+,K^+-ATPase Y140F; Y140F): 6.0 fold; Ki (H^+,K^+-ATPase L796F): 0.106 ± 0.01 µM; -fold increase in K i compared with wild-type (H^+,K^+-ATPase L796F; L796F): 18 fold; Ki (H^+,K^+-ATPase D137I): 0.062 ± 0.015 µM; -fold increase in K i compared with wild-type (H^+,K^+-ATPase D137I; D137I): 11 fold; Ki (H^+,K^+-ATPase D136A): 0.01 ± 0.001 µM; -fold increase in K i compared with wild-type (H^+,K^+-ATPase D136A; D136A): 1.7 fold; Ki (H^+,K^+-ATPase N138L): 1.3 ± 0.5 µM; -fold increase in K i compared with wild-type (H^+,K^+-ATPase N138L; N138L): 220 fold; Ki (H^+,K^+-ATPase L809F): 0.85 ± 0.13 µM; -fold increase in K i compared with wild-type (H^+,K^+-ATPase L809F; L809F): 150 fold; Ki (H^+,K^+-ATPase Q127F): 0.041 ± 0.007 µM; -fold increase in K i compared with wild-type (H^+,K^+-ATPase Q127F; Q127F): 7.1 fold; -fold increase in K i compared with wild-type (H^+,K^+-ATPase I126F; I126F): 4.1 fold; Ki (H^+,K^+-ATPase I126F; I126F (M1), high H^+-ATPase activity, K i determined by K m/V max plot): 0.024 ± 0.015 µM; -fold increase in K i compared with wild-type (H^+,K^+-ATPase D137E): 9.8 fold; Ki (H^+,K^+-ATPase D137E; high H^+-ATPase activity, K i' determined by K m/V max plot): 0.057 ± 0.016 µM; Ki (H^+,K^+-ATPase V331F): 0.015 ± 0.002 µM; -fold increase in K i compared with wild-type (H^+,K^+-ATPase V331F; V331F): 2.3 fold; Ki (H^+,K^+-ATPase L139F): 0.018 ± 0.003 µM; -fold increase in K i compared with wild-type (H^+,K^+-ATPase L139F; L139F): 3.1 fold; Ki (H^+,K^+-ATPase A339S): 0.021 ± 0.001 µM; -fold increase in K i compared with wild-type (H^+,K^+-ATPase A339S; A339S): 3.6 fold; Ki (H^+,K^+-ATPase N138D): 0.0077 ± 0.0007 µM; -fold increase in K i compared with wild-type (H^+,K^+-ATPase N138D; N138D): 1.3 fold; -fold increase in K i compared with wild-type (H^+,K^+-ATPase WT): 1.0 fold; Ki (H^+,K^+-ATPase WT; global fitting, mean ± SEM): 0.0058 ± 0.0006 µM; Ki (H^+,K^+-ATPase F332I): 0.0089 ± 0.0007 µM; -fold increase in K i compared with wild-type (H^+,K^+-ATPase F332I; F332I): 1.5 fold; Ki (H^+,K^+-ATPase Y140A): 0.025 ± 0.003 µM; -fold increase in K i compared with wild-type (H^+,K^+-ATPase Y140A; Y140A): 4.3 fold; IC50 (H^+,K^+-ATPase): 0.077 µM; Ki (H^+,K^+-ATPase N138I): 0.034 ± 0.008 µM; -fold increase in K i compared with wild-type (H^+,K^+-ATPase N138I; N138I): 5.9 fold; Ki (H^+,K^+-ATPase L141I): 0.0084 ± 0.0015 µM; -fold increase in K i compared with wild-type (H^+,K^+-ATPase L141I; L141I): 1.4 fold
